Structures are written as SMILES.

The values below come from patent publication US20160159808A1, “HETEROCYCLIC COMPOUND” (TAKEDA PHARMACEUTICAL COMPANY LIMITED, priority 2013, published 2016).

One assay addresses T1, human PDE2A3 enzyme (Homo sapiens, UniProt O00408).
T1 construct: Human PDE2A3 full-length gene was transduced into Sf9; His-tag; made in house; host or cells: Sf9 insect cells
The assay is described as follows: PDE Enzyme Inhibitory Assay (SPA, [3H]cGMP substrate). It is filed as biochemical. Conditions: compound 1 μM; [3H]cGMP 77 nM; 60 min at room temperature; read-out: inhibitory rate (%) (1 μM). Here is the method:
PDE Enzyme Inhibitory Assay Human PDE2A3 full-length gene was transduced into Sf9, and human PDE2A3 enzyme was purified by His-tag affinity column and gel filtration. The enzyme was stored at −70° C. until use. PDE activity was measured using a SPA (Scintillation Proximity Assay) (GE Healthcare). To evaluate the inhibitory activity of the compound, 10 μl of serial diluted compounds were reacted with 20 μl of PDE enzyme in assay buffer (50 mM HEPES-NaOH, 8.3 mM MgCl2, 1.7 mM EGTA, 0.1% BSA (pH 7.4)) for 30 min. at room temperature. Final concentration of DMSO in the reaction solution was 1 percent. Compounds were tested in duplicate in 96-well half-area plates (Corning) or 384-well OptiPlate (PerkinElmer). To start the reaction, 10 μl of substrate [^3H] cGMP (final concentration 77 nM, PerkinElmer) was added to a total volume of 40 μl. After reaction for 60 min at room temperature, 20 μl of 20 mg/mL yttrium SPA beads containing zinc sulfate was added to terminate the PDE reaction. After being settled for further 1 hour, the assay plates were counted in a scintillation counter (PerkinElmer) to allow calculation of inhibition rate. Inhibition rate was calculated on the basis of 0% control wells with enzyme and DMSO, and 100% control wells without enzyme.

A further assay has as its system Male C57BL/6 mice. In words: Contextual fear conditioning test, MK-801-induced deficits. It counts as in vivo. Conditions: 30 mg/kg p.o. 60 min before test, MK-801 (maleate) 0.08 mg/kg s.c. 30 min before test, n=10, FIG. 1. Here is the method:
Improvement effect on MK-801 ((5S,10R)-5-methyl-10,11-dihydro-5H-5,10-epiminodibenzo[a,d][7]annulene)-induced disorder in contextual fear conditioning test.
Male C57BL/6 mice were purchased from CLEA Japan, Inc. They were used for an experiment after a habituation period of at least one week after carrying them in the animal experimental facility. They were bred in the animal experimental facility with environment in which 12-hours light-dark cycle was performed, humidity and temperature were controlled, and free water drinking and feeding were allowed. Handling of experimental animals and experimental procedure of this study were approved by the Experimental Animal Ethics Committee of Takeda Pharmaceutical Company Limited.
A test compound was suspended in 0.5% methylcellulose solution at a dose of 30 mg/kg, and orally administered. MK-801 (maleate) (Sigma-Aldrich, St Louis, Mo.) was dissolved in saline at a dose of 0.08 mg/kg, and subcutaneously administered. All drugs were administered to mice at a dose of 10 mL/kg.
Contextual fear conditioning test is widely used as memory and learning test system depending on the hippocampus and amygdala. The improvement effect of test compounds on MK-801-induced deficits was investigated by contextual fear conditioning test. The test compounds and MK-801 (maleate) were administered 60 min and 30 min, respectively, before the test. 0.5% methylcellulose and saline were administered to the control groups 60 min and 30 min, respectively, before the test. 0.5% methylcellulose and MK-801 (maleate) were administered to the vehicle groups 60 min and 30 min, respectively, before the test. […] In the test session on day 2 of the experiment, mice were placed in the same chamber for 7 minutes, and freezing was measured during that period. The freezing was calculated as a percentage of freezing rates during measuring period with use of an automatic analysis software manufactured by the O'Hara & Co., Ltd. All data were shown as the mean+standard error (n=10). […]

T1 sequence (O00408 whole entry): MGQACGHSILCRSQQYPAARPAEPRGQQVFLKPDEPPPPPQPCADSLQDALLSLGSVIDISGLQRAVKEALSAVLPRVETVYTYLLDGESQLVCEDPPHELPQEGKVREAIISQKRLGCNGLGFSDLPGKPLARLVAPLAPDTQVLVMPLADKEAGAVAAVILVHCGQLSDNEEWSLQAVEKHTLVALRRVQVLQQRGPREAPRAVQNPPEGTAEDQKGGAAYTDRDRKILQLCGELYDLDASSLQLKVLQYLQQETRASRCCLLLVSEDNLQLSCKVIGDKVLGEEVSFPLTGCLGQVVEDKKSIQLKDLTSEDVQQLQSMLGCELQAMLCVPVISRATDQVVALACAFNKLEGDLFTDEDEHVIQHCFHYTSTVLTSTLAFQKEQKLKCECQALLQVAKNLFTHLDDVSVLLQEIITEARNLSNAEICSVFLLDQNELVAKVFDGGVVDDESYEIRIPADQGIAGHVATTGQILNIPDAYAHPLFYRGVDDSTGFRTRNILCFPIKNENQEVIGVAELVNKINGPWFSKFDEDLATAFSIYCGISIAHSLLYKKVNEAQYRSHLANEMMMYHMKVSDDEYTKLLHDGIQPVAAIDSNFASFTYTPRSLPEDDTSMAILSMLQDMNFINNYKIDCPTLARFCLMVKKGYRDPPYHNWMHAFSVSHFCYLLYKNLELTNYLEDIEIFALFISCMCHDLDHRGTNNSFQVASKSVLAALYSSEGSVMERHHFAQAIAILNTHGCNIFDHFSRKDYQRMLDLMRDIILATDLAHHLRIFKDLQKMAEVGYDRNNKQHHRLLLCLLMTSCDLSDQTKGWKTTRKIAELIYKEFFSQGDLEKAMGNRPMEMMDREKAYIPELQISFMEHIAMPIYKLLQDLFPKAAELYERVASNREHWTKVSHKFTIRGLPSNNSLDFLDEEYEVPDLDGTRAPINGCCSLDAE

As for `COCC(NC(=O)c1cc(=O)[nH]c2cccnc12)c1ccc(OC(F)(F)F)cc1` (centres unmarked) [Example 1, N-(2-methoxy-1-(4-(trifluoromethoxy)phenyl)ethyl)-2-oxo-1,2-dihydro-1,5-naphthyridine-4-carboxamide], the inhibition at 1 µM on human PDE2A3 enzyme was determined as 99%.

Regarding `COC[C@@H](NC(=O)c1cnn2cc(C)cnc12)c1ccc(OC(F)(F)F)c(F)c1` [Example 12, N-((1S)-1-(3-fluoro-4-(trifluoromethoxy)phenyl)-2-methoxyethyl)-6-methylpyrazolo[1,5-a]pyrimidine-3-carboxamide], at human PDE2A3 enzyme, the inhibition at 1 µM turned out to be 99%.

As to `CCN(C)c1ccn2ncc(C(=O)NC(c3ccc(OC(F)(F)F)c(F)c3)C(C)(C)O)c2n1` (centres unmarked) [Example 29, 5-(ethyl(methyl)amino)-N-(1-(3-fluoro-4-(trifluoromethoxy)phenyl)-2-hydroxy-2-methylpropyl)pyrazolo[1,5-a]pyrimidine-3-carboxamide], on human PDE2A3 enzyme, the inhibition at 1 µM is 100%. In the case of `COCC(NC(=O)c1cnn2ccc(N3CCOCC3)nc12)c1ccc(OC(F)(F)F)c(F)c1` (centres unmarked) [Example 38, N-(1-(3-fluoro-4-(trifluoromethoxy)phenyl)-2-methoxyethyl)-5-(morpholin-4-yl)pyrazolo[1,5-a]pyrimidine-3-carboxamide], the inhibition at 1 µM at human PDE2A3 enzyme was 98%. On the same count and under the same terms, then `Cc1cn2ncc(C(=O)NC(c3ccc(OC(F)(F)F)c(F)c3)C(C)(C)O)c2nc1N1CCC1` (centres unmarked) [Example 59, 5-(azetidin-1-yl)-N-(1-(3-fluoro-4-(trifluoromethoxy)phenyl)-2-hydroxy-2-methylpropyl)-6-methylpyrazolo[1,5-a]pyrimidine-3-carboxamide], with 101%.

As for `Cn1cc(C(=O)N[C@@H](c2ccc(OC(F)(F)F)c(F)c2)C(C)(C)O)c2nc(C3CC3)cc(=O)n21` [Example 66, 5-cyclopropyl-N-((1S)-1-(3-fluoro-4-(trifluoromethoxy)phenyl)-2-hydroxy-2-methylpropyl)-1-methyl-7-oxo-1,7-dihydropyrazolo[1,5-a]pyrimidine-3-carboxamide], the inhibition at 1 µM on human PDE2A3 enzyme came to 98%.

In the case of `Cc1ccc(-c2ccn3ncc(C(=O)N[C@@H](c4ccc(OC(F)(F)F)cc4)C(C)(C)O)c3n2)cn1` [Example 69, N-((1S)-2-hydroxy-2-methyl-1-(4-(trifluoromethoxy)phenyl)propyl)-5-(6-methylpyridin-3-yl)pyrazolo[1,5-a]pyrimidine-3-carboxamide], the inhibition at 1 µM on human PDE2A3 enzyme turned out to be 100%. For the same compound, the “improvement effect on MK-801-induced deficits in contextual fear conditioning test (freezing)” value with Male C57BL/6 mice was “improvement effect on MK-801-induced deficits was shown”.

Take `CC(C)(O)[C@@H](NC(=O)c1cnn2ccc(-c3cnn(C(F)F)c3)nc12)c1ccc(OC(F)(F)F)cc1` [Example 70, 5-(1-(difluoromethyl)-1H-pyrazol-4-yl)-N-((1S)-2-hydroxy-2-methyl-1-(4-(trifluoromethoxy)phenyl)propyl)pyrazolo[1,5-a]pyrimidine-3-carboxamide]: the inhibition at 1 µM on human PDE2A3 enzyme came to 101%. The same measure, in the same setting: in the case of `CC(C)(O)[C@@H](NC(=O)c1cnn2ccc(-c3ccccn3)nc12)c1ccc(OC(F)(F)F)cc1` [Example 72, N-((1S)-2-hydroxy-2-methyl-1-(4-(trifluoromethoxy)phenyl)propyl)-5-(pyridin-2-yl)pyrazolo[1,5-a]pyrimidine-3-carboxamide] it was 100%; in that of `Cn1cc(C(=O)N[C@@H](c2ccc(OC(F)(F)F)cc2)C(C)(C)O)c2nc(-c3ccccn3)cc(=O)n21` [Example 77, N-((1S)-2-hydroxy-2-methyl-1-(4-(trifluoromethoxy)phenyl)propyl)-1-methyl-7-oxo-5-(pyridin-2-yl)-1,7-dihydropyrazolo[1,5-a]pyrimidine-3-carboxamide], 100%; in that of `Cc1cn2ncc(C(=O)N[C@@H](c3ccc(OC(F)(F)F)cc3)C(C)(C)O)c2nc1-n1cnc(C(F)(F)F)c1` [Example 79, N-((1S)-2-hydroxy-2-methyl-1-(4-(trifluoromethoxy)phenyl)propyl)-6-methyl-5-(4-(trifluoromethyl)-1H-imidazol-1-yl)pyrazolo[1,5-a]pyrimidine-3-carboxamide], 101%.

Turning to `Cc1cn2ncc(C(=O)N[C@@H](c3ccc(OC(F)(F)F)cc3)C(C)(C)O)c2nc1-c1cnn(C(F)F)c1` [Example 83, 5-(1-(difluoromethyl)-1H-pyrazol-4-yl)-N-((1S)-2-hydroxy-2-methyl-1-(4-(trifluoromethoxy)phenyl)propyl)-6-methylpyrazolo[1,5-a]pyrimidine-3-carboxamide], on human PDE2A3 enzyme, the inhibition at 1 µM is 100%. As to `COC[C@@H](NC(=O)c1cc(=O)[nH]c2cc(C)cnc12)c1ccc(OC(F)(F)F)cc1` [Example 92, N-((1S)-2-methoxy-1-(4-(trifluoromethoxy)phenyl)ethyl)-7-methyl-2-oxo-1,2-dihydro-1,5-naphthyridine-4-carboxamide], at human PDE2A3 enzyme, the inhibition at 1 µM is 100%. On the same count and under the same terms, in the case of `CC(C)(O)[C@@H](NC(=O)c1cnn2ccc(-c3ccccc3C#N)nc12)c1ccc(OC(F)(F)F)c(F)c1` [Example 101, 5-(2-cyanophenyl)-N-((1S)-1-(3-fluoro-4-(trifluoromethoxy)phenyl)-2-hydroxy-2-methylpropyl) pyrazolo[1,5-a]pyrimidine-3-carboxamide] it was 100%; in that of `Cc1cn(-c2ccn3ncc(C(=O)N[C@@H](c4ccc(OC(F)(F)F)cc4)C(C)(C)O)c3n2)cn1` [Example 115, N-((1S)-2-hydroxy-2-methyl-1-(4-(trifluoromethoxy)phenyl)propyl)-5-(4-methyl-1H-imidazol-1-yl)pyrazolo[1,5-a]pyrimidine-3-carboxamide], 101%.

With `CC1(C)CN(c2ccn3ncc(C(=O)N[C@@H](c4ccc(OC(F)(F)F)cc4)C(C)(C)O)c3n2)CCO1` [Example 124, 5-(2,2-dimethylmorpholin-4-yl)-N-((1S)-2-hydroxy-2-methyl-1-(4-(trifluoromethoxy)phenyl)propyl)pyrazolo[1,5-a]pyrimidine-3-carboxamide], the inhibition at 1 µM on human PDE2A3 enzyme came to 99%. Take `CC1(C)CCN(c2ccn3ncc(C(=O)N[C@@H](c4ccc(OC(F)(F)F)cc4)C(C)(C)O)c3n2)C1=O` [Example 135, 5-(3,3-dimethyl-2-oxopyrrolidin-1-yl)-N-((1S)-2-hydroxy-2-methyl-1-(4-(trifluoromethoxy)phenyl)propyl)pyrazolo[1,5-a]pyrimidine-3-carboxamide]: at human PDE2A3 enzyme, the inhibition at 1 µM was determined as 100%. Regarding `COC[C@@H](NC(=O)c1cc(=O)[nH]c2cc(OC)cnc12)c1ccc(OC(F)(F)F)c(F)c1` [Example 152, N-((1S)-1-(3-fluoro-4-(trifluoromethoxy)phenyl)-2-methoxyethyl)-7-methoxy-2-oxo-1,2-dihydro-1,5-naphthyridine-4-carboxamide], the inhibition at 1 µM on human PDE2A3 enzyme worked out at 100%. The same measure, in the same setting: then `CC(C)(O)[C@@H](NC(=O)c1ccc2cncc(-c3ccccc3)c2n1)c1ccc(OC(F)(F)F)cc1` [Example 164, N-((1S)-2-hydroxy-2-methyl-1-(4-(trifluoromethoxy)phenyl)propyl)-8-phenyl-1,6-naphthyridine-2-carboxamide], with 97%.
